The values that follow are results of earlier work, collected in paper PMC4738315, “How to unveil self-quenched fluorophores and subsequently map the subcellular distribution of exogenous peptides” (Scientific Reports, 2016).

pKd: −log10 of the molar value.

For the series, the target named is anionic phospholipids (DOPC/DOPG or POPC/POPG). The note with it: POPC/POPG 75:25; ref 9 (Gonçalves et al., 2005); read-out: Affinity for PLs, Kd. The text has this: page 25: Supplementary Table 1: Sequences of the three studied CPPs and their respective affinities for glycosaminoglycans or anionic phospholipids. Peptide Sequence Affinity for HS, Kd, µM[a] Affinity for PLs, Kd, µM Penetratin (Pen)3 RQIKIWFQNRRMKWKK nd[b] 63 (DOPC/DOPG 90:10)4 Tat peptide (Tat)5 YGRKKRRQRRR 1.676 83 (POPC/POPG 75:25)7 Arg98 RRRRRRRRR 0.329 12 (POPC/POPG 75:25)9 [a] HS: heparan sulfate. [b] nd: not determined. 25

As for “RRRRRRRRR [Arg9, nona-arginine, nona-arginine cell-penetrating peptide]”, the pKd was 4.92.

A word on the pKd: it is the Kd on a negative log10 scale, so that one unit is a factor of ten.
